pEC50, pIC50: −log10 of the molar value.
Legend:
Format in all cases: cell-based
[1] = test system: pS6K1 (p-p70 S6 Kinase (Thr389)) in MCF-7 cells; assay: AlphaLISA Ultra pS6K1 assay; conditions: Homo sapiens, MCF7, 2 h, 2 hours compound incubation
Procedure, shortened: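 MCF-7 cells seeded 20–24 h, medium refreshed 2 h, then treated 2 h with compound (0.5% DMSO final). Lysates probed for Thr389-phosphorylated p70 S6K by AlphaLISA Ultra, 2 h acceptor then 2 h donor bead incubation, read on a multimode reader.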

[2] = test system: pAKT (p-Akt 1/2/3 (Ser473)) in MCF-7 cells; assay: AlphaLISA Ultra pAKT assay; conditions: Homo sapiens, MCF7, 2 hours compound incubation
Procedure, shortened: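 AlphaLISA read-out (2 h acceptor-bead, then 2 h donor-bead incubation) on thawed lysates of MCF-7 cells exposed to compounds for 2 h in 0.5% DMSO. Cells had been plated 20-24 h and given fresh medium 2 h before dosing.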

MCF-7 cells [3] = assay: Radioactive glucose uptake in MCF-7 cells; conditions: Homo sapiens, MCF7, 3H-2DG uptake
Procedure: Example 157: Radioactive Glucose Uptake in MCF-7 Cells
Assay Protocol • 1. Seed approximately 12,000 MCF-7 cells cultured without insulin per well in 96-well plates (BIOCOAT, #356690) and let the cells sit in hood for 30 min. (Cell culture medium: DMEM+10% FBS). • 2. Put the cell culture plates in TC incubator (5% CO2, 37° C.) and incubate overnight. • 3. Take out the cell plates and wash with prewarmed KRH buffer (37° C.) three times using BioTek plate washer. (KRH buffer preparation: 136 mM NaCl, 4.7 mM KCl, 1.25 mM MgCl2, 1.2 mM CaCl2), 20 mM HEPES, 0.1 mg/ml sodium pyruvate, 0.1% BSA, pH 7.4). • 4. Compound preparation and treatment: • a) Add 12 ul compound stock in 100% DMSO to the first column of Echo LDV plate • b) Serially dilute the compound solution in 100% DMSO (4 uL+8 uL DMSO) using Bravo for 9 doses • c) Dispense 350 nL compounds using Echo to the working plate. • d) i) Without compound preincubation condition, dispense 116 uL KRH buffer containing tritiated 2-deoxy-D-glucose (3H-2DG) and 2-deoxy-D-glucose (2DG) to the working plate and mix. • ii. With compound preincubation condition, dispense 110 uL KRH buffer only to the working plates and mix • e) Keep the compound working plate at 37° C. incubator until use • 5. Discard the KRH buffer (cells were kept in KRH buffer for 10-15 min before 2-DG addition) and transfer 100 uL compound working solution out to the cell culture plate using Bravo. Incubate for 20 mins at 37° C. (2DG final at 0.2 mM, 3H-2DG at 10 uCi/mL). • 6. Add prewarmed 50 uL KRH buffer (37° C.) containing 60 mM cold 2DG to the wells to stop the 2DG uptake using Multidrop combi • 7. Wash the cells with prewarmed PBS three times using BioTek plate washer • 8. Add 50 uL lysis buffer (0.1 M NaOH) into the assay plate to lyse the cells using Bravo and shake at 800 rpm for 30 min. • 9. Mix and transfer 20 uL lysate to a new white plate (Corning, #3610) and add 200 uL MicroScint-20 using Bravo • 10. Shake the plate at 1000 rpm for 30 min and count in a MicroBeta plate reader.

293T cells = assay: ATP/Rotenone assay, glucose dose response, 293T cells; conditions: Homo sapiens, HEK-293T, 10 uM rotenone pre-treat, 15 min glucose, Celltiter-Glo
Procedure: (§1) Example 158: ATP/Rotenone Assay
(§2) Day 1: Plate cells in Corning 96-Well Clear Bottom Black Polystyrene Microplates (corning 3340) in Glucose-free DMEM+10% dFBS • 80 uL/well • 25,000 cells/well for 293T • 10,000 cells/well for MCF7
(§3) Glucose DR to Establish Glucose EC50
(§4) • 1. […] Determine Compound IC50s • 1. 1 h pre-treat Rotenone/compound solution • Make 9× (90 uM) rotenone: 10 mM stock of Rotenone fresh—dilute 1:111× in Glucose-free DMEM). • Make compound dilution series in DMSO then dilute 1:111 in 90 uM rotenone in glucose-free media • Add 10 uL of 9× rotenone/compound solutions per well • 2. Stimulate with glucose for 15 min • Make glucose DR at 10× concentration in glucose-free DMEM • Add 10 uL per well and incubate at 37° C. for 15 min 3. Reconstitute and Measure • Remove plate, immediately add 100 uL of reconstituted Celltiter-Glo reagent (Promega; G7570) per well • Shake plate covered for 10 min at room temperature • Let plate sit for 2-5 min, read luminescence • Calculate IC50 for compounds

MCF-7 cells [4] = assay: ATP/Rotenone assay, glucose dose response, MCF-7 cells; conditions: Homo sapiens, MCF7, 10 uM rotenone pre-treat, 15 min glucose, Celltiter-Glo
Procedure: as §1, §2, §3, §4

| pIC50 [1] | pIC50 [2] | pIC50 (MCF-7 cells [3]) | pEC50 (MCF-7 cells [4]) | Compound | pEC50 (293T cells) |
| --- | --- | --- | --- | --- | --- |
| 5.52 to 6.00 | < 5.00 | < 5.00 |  | Cc1cc(C)c(C(=O)N2CCN(c3ccccc3)[C@H](CO)C2)c(C)c1NC1CCN(c2ccncn2)CC1 [I-166, [(3S)-3-(Hydroxymethyl)-4-phenyl-piperazin-1-yl]-[2,4,6-trimethyl-3-[(1-pyrimidin-4-yl-4-piperidyl)amino]phenyl]methanone] |  |
| 6.00 to 8.00 | < 5.00 | 6.00 to 8.00 |  | Cc1cc(C)c(C(=O)N2CCN(c3ccccc3S(N)(=O)=O)CC2)cc1N[C@@H]1CCN(c2ccccc2C#N)C[C@@H]1C [I-171, 2-(4-(5-(((3S,4R)-1-(2-cyanophenyl)-3-methylpiperidin-4-yl)amino)-2,4-dimethylbenzoyl)piperazin-1-yl)benzenesulfonamide] |  |
| 6.00 to 8.00 | < 5.00 | 6.00 to 8.00 |  | Cc1cc(C)c(C(=O)N2CCN(c3cccc(F)c3S(N)(=O)=O)C[C@@H]2C)c(C)c1NC1CCN(c2ccc(F)cc2C#N)CC1 [I-182, (S)-2-(4-(3-((1-(2-cyano-4-fluorophenyl)piperidin-4-yl)amino)-2,4,6-trimethylbenzoyl)-3-methylpiperazin-1-yl)-6-fluorobenzenesulfonamide] |  |
| 6.00 to 8.00 | < 5.00 | 6.00 to 8.00 |  | Cc1cc(C)c(C(=O)N2CCN(c3cccc(F)c3[S@@](C)(=N)=O)C[C@@H]2C)c(C)c1NC1CCN(c2ccc(F)cc2C#N)CC1 [I-191, 5-fluoro-2-(4-(3-((2S)-4-(3-fluoro-2-(S-methylsulfonimidoyl)phenyl)-2-methylpiperazine-1-carbonyl)-2,4,6-trimethylphenylamino)piperidin-1-yl)benzonitrile] |  |
| 6.00 to 8.00 | < 5.00 | 6.00 to 8.00 |  | Cc1cc(C)c(C(=O)N2CCN(c3cccnn3)[C@H](CN)C2)c(C)c1NC1CCN(c2ccccc2C#N)CC1 [I-194, (R)-2-(4-(3-(3-(aminomethyl)-4-(pyridazin-3-yl)piperazine-1-carbonyl)-2,4,6-trimethylphenylamino)piperidin-1-yl)benzonitrile] |  |
| 5.52 to 6.00 | < 5.00 | 5.30 to 5.52 |  | Cc1cc(C)c(C(=O)N2CCN(c3cccnn3)[C@H](CN)C2)c(C)c1NC1CCN(c2ccc(F)cc2C#N)CC1 [I-195, (R)-2-(4-(3-(3-(aminomethyl)-4-(pyridazin-3-yl)piperazine-1-carbonyl)-2,4,6-trimethylphenylamino)piperidin-1-yl)-5-fluorobenzonitrile] |  |
|  |  |  | ~3.60 | O=C[C@H](O)[C@@H](O)[C@H](O)[C@H](O)CO [glucose] | ~3.00 |

— patent US10844013B2, “Phenyl amino piperidine mTORC inhibitors and uses thereof” (Navitor Pharmaceuticals, Inc., priority 2016, dated 2020)
